Measured values as given in US10322136B2, “Composition for inhibiting growth or proliferation of chronic myelogenous leukemia cancer stem cells, and screening method therefor” (HIROSHIMA UNIVERSITY, priority 2015, dated 2019).
Structures can show the parent of a compound that is named as a salt. Where a SMILES comes first, the peptide text is derived from it. [ ]: non-standard residue; d: D form. Sar = CNCC(=O)O

Experiments:
CML-KLS+ cells [1] = experiment: Metabolomic analysis of CML-KLS+ cells treated in vitro with protein degradation inhibitors; type: cell-based, mouse; conditions: 100 nM, 2 hrs in vitro, hypoxic (3% O2)
Description: (§1) To detect inhibition of dipeptide uptake in vivo, immature KLS^+ cells were isolated from tet-inducible CML-affected (Tal1-tTA^+TRE-BCR-ABL1^+) mice (n=4 mice in each of the three independent experiments), and normal healthy littermate (Tal1-tTA^+) mice (n=6 mice in each of the two independent experiments) that had received vehicle or cefadroxil (36 mgKg^−1day^−1) by oral gavage for 30 days. […] In all cases, isolated cell pellets were frozen at −80° C. immediately after obtaining. Metabolomic profiling was performed by Metabolon Inc. (Durham, N.C.) using ultrahigh-performance liquid chromatography/mass spectroscopy (UPLC/MS/MS) and gas chromatography/MS (GC/MS). Data were compiled using the Metabolon LIMS (Laboratory Information Management System). The UPLC/MS/MS portion of the platform was based on a Waters Acquity UPLC (Waters) and a Q-Exactive high-resolution/accurate mass spectrometer (Thermo Scientific) interfaced with a heated electrospray ionization (HESI-II) source and Orbitrap mass analyzer. GC/MS was performed by a Trace DSQ fast-scanning single-quadrupole mass spectrometer using electron impact ionization (Thermo-Finnigan).

Smad3 Ser208 = experiment: Duolink in situ PLA, Smad3 Ser208 phosphorylation in LT-CML cancer stem cells; type: cell-based, mouse
Description: (§2) To examine phosphorylation of Smad2, Smad3, p38MAPK, AMPK, and S6 ribosomal protein, and Foxo3a-Smad2 and Foxo3a-Smad3 interactions, Duolink® in situ PLA assay (Olink Bioscience) was used. LT-CML stem cells, ST-CML stem cells, CD48^+, MPP, and KLS^− CML cells that were freshly isolated from CML-affected mice, and LT-normal HSCs that were freshly isolated from healthy control littermates, were immediately fixed with 4% paraformaldehyde for 30 min.
(§3) For in vitro inhibitor experiments, LT-CML stem cells were incubated in 3% O2 at 37° C. for 30 min with vehicle (control; artificial gastric fluid solution (900 ml ddH2O containing 2.0 g of NaCl, 7 ml of conc. HCl and 3.2 g of pepsin)), 5 μM Ly364947 (TGF-β type I receptor kinase Alk5 inhibitor; Merck), 5 μM SB203580 (p38MAPK inhibitor; LC Laboratories), 5 μM GlySar (dipeptide transporter inhibitor; Sigma-Aldrich), 5 μM cefadroxil (dipeptide transporter inhibitor; Sigma-Aldrich), or 100 nM rapamycin (mTORC1 inhibitor; Cell Signaling Technologies). Treated cells were fixed with 4% paraformaldehyde for 30 min, and treated with 0.25% Triton X-100 for 15 min, washed and blocked by incubation in 5% FBS in TBS for 1 hr.
(§4) The proximate binding of these antibodies was then detected using Duolink® in situ PLA system which employs a set of two secondary antibodies in which one is conjugated to a minus strand PLA probe and the other is conjugated to a plus strand PLA probe. Nuclei were stained with DNA marker DAPI (Sigma). Stained slides were mounted using Fluoromount Plus (Diagnostic Biosystems) and fluorescent images were acquired by confocal microscopy (FV10i, Olympus) and Photoshop software (Adobe). The number of fluorescent foci per single cell was quantified using Duolink®Image Tool software (Olink Bioscience).

S6 ribosomal protein = experiment: Duolink in situ PLA, S6 ribosomal protein phosphorylation in LT-CML cancer stem cells; type: cell-based, mouse; conditions: 30 min; GlySar or cefadroxil 5 μM; rapamycin 100 nM
Description: as §2
as §3, with “Treated cells were fixed with 4% paraformaldehyde for 30 min, and treated with 0.25% Triton X-100 for 15 min, washed and blocked by incubation in 5% FBS in TBS for 1 hr.” left out
(§5) The proximate binding of these antibodies was then detected using Duolink® in situ PLA system which employs a set of two secondary antibodies in which one is conjugated to a minus strand PLA probe and the other is conjugated to a plus strand PLA probe. […] The number of fluorescent foci per single cell was quantified using Duolink®Image Tool software (Olink Bioscience).

Raptor-Ser792 = Raptor-Ser792 phosphorylation in LT-CML cancer stem cells; type: cell-based, mouse; conditions: LT-CML cancer stem cells in vitro
Raptor-Ser863 = experiment: Duolink in situ PLA, Raptor-Ser863 phosphorylation in LT-CML cancer stem cells; type: cell-based, mouse; conditions: 30 min; GlySar or cefadroxil 5 μM; rapamycin 100 nM
Description: as §2
as §3, with “Treated cells were fixed with 4% paraformaldehyde for 30 min, and treated with 0.25% Triton X-100 for 15 min, washed and blocked by incubation in 5% FBS in TBS for 1 hr.” left out
as §5

AMPK = experiment: Duolink in situ PLA, AMPK phosphorylation in LT-CML cancer stem cells; type: cell-based, mouse; conditions: LT-CML cancer stem cells in vitro
Description: as §2, §3, §4

CML-KLS+ cells [2] = experiment: Metabolomic analysis of dipeptides in KLS+ cells from treated CML-affected mice; type: in vivo, mouse; conditions: IM 100 mg/kg/day for 30 days (1 month)
Description: as §1

SLC15A2 mRNA = conditions: nine CML patients, 1 month after IM therapy; public database; cited from earlier work

Compound | dipeptide accumulation (CML-KLS+ cells [1]) | individual amino-acid levels (CML-KLS+ cells [1]) | Raptor-Ser792 phosphorylation (Raptor-Ser792) | phosphorylation of AMPK (AMPK) | other results
CO/C1=C\C(C)=C\[C@@H](C)[C@@H](O)[C@@H](C)C/C(C)=C/C=C/[C@H](OC)[C@@H]([C@@H](C)[C@@H](O)[C@H](C)[C@@]2(O)C[C@@H](O)[C@H](C)[C@@H](C(C)C)O2)OC1=O [Bafilomycin A1] | increased significantly | decreased |  |  | 
CC(C)C[C@H](NC(=O)[C@H](Cc1ccccc1)NC(=O)c1cnccn1)B(O)O [Bortezomib] | increased significantly | decreased |  |  | 
CN(CC(=O)O)C(=O)CN [GlySar, glycylsarcosine] (H-Gly-[Sar]-OH) |  |  | did not promote | increased | Smad3 Ser208 phosphorylation (Smad3 Ser208; 30 min, GlySar or cefadroxil 5 μM, rapamycin 100 nM): blocked; phosphorylation of S6 (S6 ribosomal protein): decreased phosphorylation; phosphorylation of Raptor-Ser863 (Raptor-Ser863): decreased phosphorylation
Cc1ccc(NC(=O)c2ccc(CN3CCN(C)CC3)cc2)cc1Nc1nccc(-c2cccnc2)n1 [IM, imatinib mesylate] |  |  |  |  | levels of phospho-Smad3-Ser208 (Smad3 Ser208; IM treatment of murine LT-CML stem cells in vitro): reduced; dipeptide levels in CML-KLS+ cells (CML-KLS+ cells [2]): tended to decrease; SLC15A2 mRNA levels in CML patients (SLC15A2 mRNA): decreased to a level comparable to that in healthy individuals
CN(C)C(=N)N=C(N)N [Metformin] |  |  | increases | increases | 
